Test results reported in patent publication US20060258003A1, “Culture medium composition, culture method, and myoblasts obtained, and their uses” (CELOGOS, priority 2002, published 2006).

How the values were obtained:
[1] = tested on: human muscle cells; test: Toxicity of commercial statins on human muscle cells; assay type: cell-based; conditions: 0-1 μM; FIG. 4; total culture time 5 days
Description: These experiments were reproduced with human muscle cells in order to test the toxicity of the commercial statins.
The experimentation procedure is as follows.
On day 1 the media are changed. On day 3 staining is carried out.
The total culture time is 5 days.
After aspiration of the culture medium, the cells are washed with PBS then fixed with 100% ethanol. 10 minutes later the cells are washed with water then stained with a solution of 10% Giemsa for 10 minutes. The final step is washing with water.
Images of the cells are obtained with an inverted microscope (Nikon) equipped with a digital camera and a motorized stage.

[2] = compared with other statins; cited from earlier work
[3] = tested on: human muscle cells; test: Effect of Hepes buffer on long-term growth of human muscle cells; assay type: cell-based; conditions: 15 mM in culture medium
[4] = tested on: rat adipocyte cells; test: Cell test predictive of muscle toxicity, rat adipocyte cells; conditions: 0.5 μM; 2 days culture

COCc1c(C(C)C)nc(C(C)C)c(/C=C/[C@@H](O)C[C@@H](O)CC(=O)O)c1-c1ccc(F)cc1 [Cerivastatin]
toxicity on human muscle cells [1]: high toxicity | toxicity in human clinical use [2]: most toxic statin

O=S(=O)(O)CCN1CCN(CCO)CC1 [Hepes]
growth of human muscle cells in the long term [3]: inhibits the growth

CC[C@H](C)C(=O)O[C@H]1C[C@@H](C)C=C2C=C[C@H](C)[C@H](CC[C@@H]3C[C@@H](O)CC(=O)O3)[C@H]21 [Lovastatin]
sensitivity of adipocyte cells [4]: insensitive
